Measured values reported in patent publication US9796665B2 (priority 2013, dated 2017).

Legend:
[1] = system: RBL-2H3 cells (rat basophilic leukemia cells); experiment: Histamine release of mast cells activated by PAR-2 agonist SLIGRL; assay type: cell-based; details: FIG. 4
Procedure: The PAR-2, which is a receptor activated by protease (tryptase, chymase, and the like) present outside cells, induces degranulation on surfaces of the mast cells. In order to confirm whether or not the ceramide derivative compound according to the present invention suppresses activities of the mast cells by PAR-2, RBL-2H3 cells (rat basophilic leukemia cells) corresponding to one kind of mast cells were cultured in a DMEM medium containing 10% FBS in a 24-well plate, and then treated with the compound for 2 hours. Thereafter, in order to induce degranulation of the mast cells, the cells were treated with 10 μM SLIGRL peptide, which is a PAR-2 agonist, for 1 hour. The concentration of histamine released outside the cells was measured using a HTRF histamine assay kit (Cisbio). 10 μl of a medium supernatant of the cells was treated with anti-histamine cryptate conjugate and histamine-d2 according to the manufacturer's manual at room temperature for 2 hours. Thereafter, fluorescence was measured at 665 nm and 620 nm and compensated by a ratio of 665 nm/620 nm, and then, the concentration of histamine in the cells was measured using a standard curve. […] Therefore, the novel ceramide derivative according to the present invention, which is the novel cannabinoid receptor agonist, is a compound effectively suppressing the activities of the mast cells.

[2] = biological target: T1, cannabinoid receptor 1 (CB1R) (Homo sapiens, UniProt P21554); experiment: cAMP production suppression in CHO cells over-expressing CB1R (HTRF cAMP assay, forskolin-induced); assay type: cell-based; details: for concentration of cAMP: 0-50 μM compound, 10 μM forskolin, FIG. 1; for Modulation: Target CB1R
T1 construct: host or cells: CHO cells over-expressing CB1R
Text: cAMP production suppression efficacy by agonistic action of the synthesized materials was confirmed using CHO cells in which cannabinoid receptor 1 (CB1R) was over-expressed.
The CHO cells in which the cannabinoid receptor 1 (CB1R) was over-expressed were purchased from Chantest, and cultured in an F-12 medium (Gibco) containing 10% fetal bovine serum (FBS, Gibco). In order to conform an agonistic activity of a ceramide derivative compounds according to the present invention on the cannabinoid receptor, the cells were plated in a 96-well dish, cultured for 24 hours, and then, treated at concentrations of 0, 0.781, 1.562, 3.125, 6.25, 12.5, 25, and 50 μM (0.1% DMSO in PBS). The cells were treated with 10 μM Forskolin (Sigma), thereby inducing cAMP production by adenylyl cyclase in the cells. A concentration of cAMP in the cells was measured using a HTRF cAMP assay kit purchased from Cisbio. After dissolving the cells with lysis buffer in the kit according to the manufacturer's manual, anti-cAMP cryptate conjugate and cAMP-d2 in the kit were treated at room temperature for 2 hours. Thereafter, fluorescence was measured at 665 nm and 620 nm and compensated by a ratio of 665 nm/620 nm, and then, the concentration of cAMP in the cells was measured using a standard curve. Since activity of adenylyl cyclase was suppressed when the cannabinoid receptor 1 (CB1R) was activated, the cannabinoid receptor agonist according to the present invention suppresses production of cAMP in the cells. […] As illustrated in the following Table 1, it may be confirmed that the novel cannabinoid receptor agonists according to the present invention activate the cannabinoid receptor 1 (CB1R) when EC50 was 24 to 26 μM.

[3] = system: RBL-2H3 cells (rat basophilic leukemia cells); experiment: Degranulation of mast cells activated by IgE antibody and antigen; assay type: cell-based; details: FIG. 3(A) and (B)
Procedure: In order to confirm whether or not the ceramide derivative compound according to the present invention suppresses activities of the mast cells, RBL-2H3 cells (rat basophilic leukemia cells) corresponding to one kind of mast cells were cultured in a DMEM medium containing 10% FBS in a 24-well plate, and then treated with the compound for 16 hours. In order to induce degranulation of the mast cells, the cells were treated with IgE antibody (0.2 μg/ml) and NP-BSA (0.1 μg/ml) for 1 hour, and then, concentrations of β-hexosaminidase and histamine released to the medium were measured. In detail, at the time of measuring the concentration of β-hexosaminidase, 50 μl of the medium was reacted together with 50 μl of p-nitrophenyl-nacetyl-β-d-glucosaminidine, (p-NAG, Sigma) at 37° C. for 2 hours, and then, the reaction was terminated by adding 200 μl of 0.2 M glycine (pH 10.6, Sigma). Absorbance at a wavelength of 405 nm was measured using a spectrometer. The concentration of histamine was measured using a HTRF histamine assay kit (Cisbio). […] Thereafter, fluorescence was measured at 665 nm and 620 nm and compensated by a ratio of 665 nm/620 nm, and then, the concentration of histamine in the cells was measured using a standard curve.

[4] = system: oxazolone-induced atopic dermatitis animal model; experiment: IgE and histamine in blood in atopic dermatitis animal model; assay type: in vivo, hairless mice; details: for concentration of IgE antibody in the blood: FIG. 8(A); for concentration of histamine in the blood: FIG. 8(B)
Procedure: (§1) In order to evaluate efficacy of the novel compound according to the present invention in an animal model, first, hairless mice were treated with oxazolone (Sigma), thereby establishing atopic dermatitis-like animal models. More specifically, on day 1, the mice were sensitized with 1% oxazolone in acetone on the back, and after 1 week, the mice were treated with 0.1% oxazolone in acetone on the back every other day for 2 weeks, thereby inducing atopic dermatitis-like symptoms. Thereafter, the compound (1%) according to the present invention was dissolved in a solution in which polyethylene glycol (PEG, Sigma) and ethanol were mixed with each other at a ratio of 7:3, and the mice were treated with the obtained compound solution on the back once in the morning and evening for 10 days. […] In addition, a skin thickness of each of the animal models was measured and illustrated by a graph. […] Therefore, the compound according to the present invention may be effective to treat atopic dermatitis.
In order to evaluate efficacy of the novel compound according to the present invention in an atopic dermatitis animal model, after treating an oxazolone (Sigma)-induced atopic dermatitis animal model with the compound, concentrations of IgE antibody and histamine present in the blood were measured. The IgE and histamine in the blood are known as markers of atopic dermatitis and inflammatory dermatitis such as contact dermatitis, and as the disease aggregates, the concentrations thereof in the blood further increases. The increased IgE activated mast cells, and allowed the mast cells to release a large amount of inflammatory cytokines such as histamine.

[5] = system: oxazolone-induced atopic dermatitis animal model; experiment: Mast cells in skin of atopic dermatitis animal model (toluidine blue staining); assay type: in vivo, hairless mice; details: FIG. 9
Procedure: In order to evaluate whether or not the novel compound according to the present invention suppresses the activities of mast cells in an atopic dermatitis animal model, first, hairless mice were treated with oxazolone (Sigma), thereby establishing an atopic dermatitis animal model. More specifically, on day 1, mice were sensitized with 1% oxazolone in acetone on the back, and after 1 week, the mice were treated with 0.1% oxazolone in acetone on the back every other day for 2 weeks, thereby inducing atopic dermatitis on the back skin of the mice. Thereafter, the compound (1%) according to the present invention was dissolved in a solution in which polyethylene glycol (PEG, Sigma) and ethanol were mixed with each other at a ratio of 7:3, and the mice were treated with the obtained compound solution on the back once in the morning and evening for 10 days. Then, skin biopsy was taken and stained with toluidine blue solution (Sigma), thereby confirming presence of mast cells. […] The mast cells in the skin as described above release various kinds of inflammatory cytokines, thereby aggregating atopic dermatitis. […] The number of mast cells present on the skin in each of the groups was statistically analyzed and illustrated by a graph. […]

[6] = system: RBL-2H3 cells (rat basophilic leukemia cells); experiment: Degranulation of mast cells activated by ionomycin; assay type: cell-based; details: FIG. 2(A) and (B)
Procedure: In order to confirm whether or not the ceramide derivative compound according to the present invention suppresses activation of the mast cells, RBL-2H3 cells (rat basophilic leukemia cells) corresponding to one kind of mast cells were cultured in a DMEM medium containing 10% FBS in a 24-well plate, and then treated with the compound for 16 hours. In order to induce degranulation of the mast cells, the cells were treated with 2 μM ionomycin (Sigma), and after 30 minutes, concentrations of β-hexosaminidase and histamine released to the medium were measured. In detail, at the time of measuring the concentration of β-hexosaminidase, 50 μl of the medium was reacted together with 50 μl of p-nitrophenyl-nacetyl-β-d-glucosaminidine, (p-NAG, Sigma) at 37° C. for 2 hours, and then, the reaction was terminated by adding 200 μl of 0.2 M glycine (pH 10.6, Sigma). Absorbance at a wavelength of 405 nm was measured using a spectrometer. The concentration of histamine was measured using a HTRF histamine assay kit (Cisbio). 10 μl of a medium supernatant of the cells was treated with anti-histamine cryptate conjugate and histamine-d2 according to the manufacturer's manual at room temperature for 2 hours. Thereafter, fluorescence was measured at 665 nm and 620 nm and compensated by a ratio of 665 nm/620 nm, and then, the concentration of histamine in the cells was measured using a standard curve. […]

[7] = system: oxazolone-induced atopic dermatitis animal model; experiment: Oxazolone-induced atopic dermatitis animal model, skin thickness; assay type: in vivo, hairless mice; details: FIG. 7(A) and (B)
Procedure: as §1

T1 sequence (P21554 whole entry): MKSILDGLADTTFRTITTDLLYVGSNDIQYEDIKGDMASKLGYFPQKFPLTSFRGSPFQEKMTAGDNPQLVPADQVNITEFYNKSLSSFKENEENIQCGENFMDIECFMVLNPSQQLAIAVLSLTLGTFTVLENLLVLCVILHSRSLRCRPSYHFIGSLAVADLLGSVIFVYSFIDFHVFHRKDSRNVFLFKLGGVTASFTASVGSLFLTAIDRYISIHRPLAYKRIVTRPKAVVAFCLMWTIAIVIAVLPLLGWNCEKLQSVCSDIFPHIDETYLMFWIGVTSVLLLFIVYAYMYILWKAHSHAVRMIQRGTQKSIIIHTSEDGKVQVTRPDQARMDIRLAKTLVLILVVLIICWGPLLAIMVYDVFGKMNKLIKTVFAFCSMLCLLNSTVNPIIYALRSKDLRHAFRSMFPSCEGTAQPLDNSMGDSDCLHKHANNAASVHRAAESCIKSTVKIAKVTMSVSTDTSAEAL

Row | SMILES | activation of mast cells by protease activated receptor 2 (PAR-2) [1] | concentration of cAMP [2] | Modulation [2] | activation of the mast cells by IgE antibody and antigen [3] | concentration of IgE antibody in the blood [4] | concentration of histamine in the blood [4] | invasion of mast cells in a lesion site [5] | activation of mast cells by ionomycin [6] | skin damage [7]
1 | CCCCCCCC/C=C\CCCCCCCC(=O)C(CCCCCC/C=C\CCCCCCCC)C(=O)NCCO (stereo not drawn) [CBS004, (11Z)-2-((Z)-hexadec-7-enyl)-N-(2-hydroxyethyl)-3-oxoicos-11-enamide] | suppression effects | decreased dependently on the concentration of the compound | Agonist | suppression effects | decrease effects | decrease effects | suppressed | suppression effects | repair effects
2 | CCCCCCCC/C=C\CCCCCCCC(=O)C(CCCCCC/C=C\CCCCCCCC)C(=O)NC(CO)CO (stereo not drawn) [CBS007, (11Z)-2-((Z)-hexadec-7-enyl)-N-(1,3-dihydroxypropan-2-yl)-3-oxoicos-11-enamide] | suppression effects | decreased dependently on the concentration of the compound | Agonist | suppression effects | decrease effects | decrease effects | suppressed | suppression effects | repair effects
